Assay results from patent publication US20090004171A1, “COMPOUND PROFILING METHOD” (CYTOPATHFINDER, INC., priority 2007, published 2009).

How the values were obtained:
T-47D cell = conditions: T-47D human derived breast cancer cell, compared with SK-BR-3; cited from earlier work
MCF7 = MCF7 breast cancer cells; cited from earlier work
SK-BR-3 = SK-BR-3 breast cancer cell; stated as known; cited from earlier work
SHSY5Y cell = experiment: Exposure of SHSY5Y neuroblastoma cells to differentiation stimulants (neuron projection extension, marker enzyme expression); type: cell-based; conditions: human neuroblastoma
Excerpt: The functions of (1) and (2) are different, but share the same properties in terms of extension of neuron projection. Therefore, cellular components necessary for these two intracellular alteration were specified experimentally by means of RNA interference method. As such, it was obtained that the component collection (3) necessary for the alteration from SHSY5Y to (1) are {JAK1, JAK3, ROR, and RET}. On the other hand, the component collection (4) necessary for the alteration from SHSY5Y cells to (2), are {NTRK1, EPHB2, INSR, RDGFRA, ROR and RET}. When comparing and calculation of intersection is done for (3) and (4), the intersection (5) was obtained to read {ROR and RET}. Next, the collection (6) {JAK1 and JAK3} by subtraction of (3)−(5) and the collection (5) were analyzed in terms of an intermolecular interaction, and the existence of a pathway of a molecular signals from (6) to (5) (FIG. 3A) was determined. Furthermore, the collection (7) which was obtained by the subtraction of (4)−(5), and the collection (5) were analyzed in terms of an intermolecular interaction, and the existence of a pathway of molecular signals from (7) to (5) (FIG. 3B) was further determined. The common components and pathway relating to the projection extension by retinoic acid (RA) and Nerve Growth Factor (NGF) are shown in FIG. 4.

Compound | DXR sensitivity (T-47D cell) | DXR sensitivity / resistance (MCF7) | effect on cell growth (SK-BR-3) | expression of tyrosine hydroxylase (SHSY5Y cell) | extension of neuron projection (SHSY5Y cell)
COc1cccc2c1C(=O)c1c(O)c3c(c(O)c1C2=O)C[C@@](O)(C(=O)CO)C[C@@H]3O[C@H]1C[C@H](N)[C@H](O)[C@H](C)O1 [doxorubicin] | same DXR sensitivity as the SK-BR-3 | DXR resistance | growth inhibition | – | –
Nerve Growth Factor: Nerve Growth Factor, stimulant triggering neurite outgrowth of SHSY5Y cells | – | – | – | tyrosine hydroxylase was expressed | caused extension of neuron projection
